Read-outs that look alike come from different tables or passages of the source.
Key:
c-Abl [1] = experiment: Mitochondrial c-Abl kinase activity, GST-Crk(120-225) phosphorylation, ER stress; assay type: cell-based; settings: anti-c-Abl immunoprecipitates of mitochondrial fraction
Procedure: (§1) The supernatant was collected and centrifuged at 10,000×g for 10 minutes. […] Protein concentration was determined by the Bio-Rad protein estimation kit.
Analysis of c-Abl activity: Cell lysates were prepared as described in Example 1 and subjected to immunoprecipitation with anti-c-Abl (K-12; Santa Cruz). The immunoprecipitates were resuspended in kinase buffer (see Example 1) containing […] of [g-32P]ATP and GST-Crk(120-225) or GST-Crk(120-212) for 15 minutes at 30° C. The reaction products were analyzed by SDS-PAGE and autoradiography.

c-Abl [2] = experiment: c-Abl levels in the ER fraction, ER stress; assay type: cell-based
Procedure: (§2) Cells were treated with A23187 (Sigma) or Brefeldin A (Sigma).
(§3) Isolation of the ER fraction: Cells were washed with PBS, lysed in homogenization buffer (50 mM Tris-HCl, pH 8.0, 1 mM b-mercaptoethanol, 1 mM EDTA, 0.32 M sucrose and 0.1 mM PMSF), and then centrifuged at 5,000×g for 10 minutes. The supernatant was collected and centrifuged at 105,000×g for 1 hour. […] The resulting supernatant was used as the ER fraction.

c-Abl [3] = experiment: c-Abl targeting to mitochondria under ER stress, immunofluorescence and immunoblot; assay type: cell-based; settings: mitochondrial fraction
Procedure: as §2
Digital confocal immunofluorescence microscope: Cells grown on poly-D-lysine coated glass coverslips were fixed (3.7% formaldehyde in PBS, pH 7.4; 10 minutes), permeabilized (0.2% Triton X-100; 10 min), blocked for 30 minutes in media containing serum. After rinsing with PBS, immunostaining was performed by incubating the cells with 50 ng/slide of anti-c-Abl (K-12 rabbit polyclonal; Santa Cruz) and anti-grp-78 (C-20 goat polyclonal; Santa Cruz). For c-Abl and calreticulin staining, cells were incubated first with anti-c-Abl alone for 1 hour followed by blocking for 30 minutes in media containing serum. After washing with PBS, cells were then incubated with anti-calreticulin (rabbit polyclonal; StressGen). Finally, cells were incubated with a 1:250 dilution of CY-3 or Fluorescein (FITC)-conjugated anti-rabbit or anti-goat secondary antibodies (Jackson ImmunoResearch) for 1 hour. Mitochondria were stained with 0.006 ng/slide Mitotracker Green FM (Molecular Probes). Nuclei were stained with 4,6-diamino-2-phenylindole (DAPI; 1 mg/ml in PBS). Coverslips were mounted onto slides with 0.1 M Tris (pH 7.0) in 50% glycerol. Cells were visualized by digital confocal immunofluorescence and images were captured with cooled CCD camera mounted on a Zeiss Axioplan 2 microscope. Images were deconvolved using Slidebook software (Intelligent Imaging Innovations, Inc., Denver, Colo.).
as §1

MEFs = experiment: Apoptosis by sub-G1 DNA in MEFs under ER stress; assay type: cell-based, mouse; settings: c-Abl−/− cells
Procedure: Apoptosis assays: DNA content was assessed by staining ethanol-fixed cells with propidium iodide and monitoring by FACScan (Becton-Dickinson).

grp78 = grp78 expression in the ER fraction, ER stress; assay type: cell-based
Procedure: as §2, §3

c-Abl [4] = experiment: c-Abl levels in cytoplasmic and nuclear fractions, ER stress; assay type: cell-based
Text: Isolation of cytoplasmic and nuclear fractions: The cytoplasmic and nuclear fractions were isolated as described in Example 1.

PKCd [5] = target: T1, PKCd (Homo sapiens, UniProt Q05655); experiment: PKCd translocation to mitochondria in U-937 cells, immunoblot of fractions; assay type: cell-based; design: subjecting cytoplasmic and mitochondrial fractions to immunoblotting with anti-PKC antibodies; endogenous in cells; host or cells: U-937
T1 sequence (Q05655 whole entry): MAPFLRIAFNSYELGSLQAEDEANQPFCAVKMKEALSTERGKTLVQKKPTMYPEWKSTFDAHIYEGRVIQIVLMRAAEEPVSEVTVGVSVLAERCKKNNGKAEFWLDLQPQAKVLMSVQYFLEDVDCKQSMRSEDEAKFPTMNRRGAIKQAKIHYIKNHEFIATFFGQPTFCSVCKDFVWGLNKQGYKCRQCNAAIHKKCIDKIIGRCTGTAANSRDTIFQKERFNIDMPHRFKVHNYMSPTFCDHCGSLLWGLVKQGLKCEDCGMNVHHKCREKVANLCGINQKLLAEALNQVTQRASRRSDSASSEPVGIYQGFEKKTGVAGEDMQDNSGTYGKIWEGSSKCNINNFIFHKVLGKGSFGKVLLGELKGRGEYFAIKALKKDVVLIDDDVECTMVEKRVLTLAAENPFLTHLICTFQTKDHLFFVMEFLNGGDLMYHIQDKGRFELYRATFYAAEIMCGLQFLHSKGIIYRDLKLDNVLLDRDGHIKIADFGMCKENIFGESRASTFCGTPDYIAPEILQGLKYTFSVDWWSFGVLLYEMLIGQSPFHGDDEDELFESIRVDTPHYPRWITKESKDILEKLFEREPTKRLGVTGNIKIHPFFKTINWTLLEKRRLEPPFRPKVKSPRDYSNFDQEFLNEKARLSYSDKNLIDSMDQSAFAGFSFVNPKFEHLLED
Procedure: (§4) Cells were also treated with 10 μM rottlerin (Calbiochem).
Mitochondria were stained with 0.006 ng/slide of Mitotracker Green FM (Molecular Probes). The slides were analyzed using a Zeiss Auxiphot fluorescence microscope coupled to a CCD camera and a power Macintosh 8100. Image analysis was performed using the IPLab Spectrum 3.1 software (Signal Analytics).
(§5) Transfections were performed with Superfect (Qiagen).
(§6) The cells were disrupted by Douce homogenization.
(§7) The supernatants (S1) were collected.
Mitochondria were stained with 0.006 ng/slide of Mitotracker Green FM (Molecular Probes). The slides were analyzed with a Zeiss Auxiphot fluorescence microscope coupled to a CCD camera and a power Macintosh 8100. Image analysis was performed using the IPLab Spectrum 3.1 software (Signal Analytics).

c-Abl [6] = experiment: c-Abl immune complex kinase assay, phosphorylation of GST-Crk(120-225), COS7 cells; assay type: cell-based; settings: 30 mM NAC
Procedure: Cell culture: COS7 cells and mouse embryonic fibroblasts (MEFs) derived from wild-type and c-Abl^−/− mice were cultured in Dulbecco's modified Eagle's medium containing 10% heat-inactivated fetal calf serum, 2 mM L-glutamine, 100 units/ml penicillin and 100 μg/ml streptomycin. DLD1 cells were grown as described (Polyak et al. (1997) Nature 389, 300-305). Cells were treated with H2O2 (Sigma), 30 mM N-acetyl-L-cysteine (NAC; Sigma) or 10 μM cis-platinum (Sigma).
(§8) Analysis of kinase activity: Cell lysates were prepared in lysis buffer (10 mM Tris-HCl, pH 7.5, 10 mM NaCl, 1 mM DTT, 0.1 mM EDTA, 3 mM MgCl2, 0.5 mM PMSF, 5 μg/ml leupeptin) containing 0.5% Nonidet P-40 and subjected to immunoprecipitation as described (Kharbanda et al. (1997) Nature 386, 732-735) with anti-c-Abl (sc-23; Santa Cruz) or mouse IgG (Santa Cruz). The immunoprecipitates were resuspended in kinase buffer (20 mM HEPES, pH 7.4, 10 mM MgCl2, 10 mM MnCl2) containing 2.5 μCi [g-32P]ATP and GST-Crk(120-225) or GST-Crk(120-212) for 20 minutes at 30° C. Anti-PKCd (sc-937; Santa Cruz) and anti-ERK1 (sc-93; Santa Cruz) immunoprecipitates were analyzed by using histone H1 and myelin basic protein (Upstate Biotecnology Inc.), respectively, as substrates. The reaction products were analyzed by SDS-PAGE and autoradiography.

c-Abl [7] = experiment: c-Abl translocation to mitochondria in MEFs, oxidative stress; assay type: cell-based, mouse; settings: MEFs
Procedure: Cells were treated with 1 mM H2O2 (Sigma) and 30 mM N-acetyl-L-cysteine (NAC; Sigma). Transient transfections were performed in the presence of calcium phosphate.
Immunofluorescence microscopy: Cells were plated onto poly D-lysine coated glass coverslips 1 day prior to H2O2 treatment (1 hour) and then fixed with 3.7% formaldehyde/PBS (pH 7.4) for 10 minutes. Cells were washed with PBS, permeabilized with 0.2% Triton X-100 for 10 minutes, washed again and incubated for 30 minutes in complete medium. The coverslips were then incubated with […] of anti-c-Abl (K-12) for 1 hour followed by Texas Red-goat anti-rabbit Ig (H+L) conjugate (Molecular Probes, Eugene, Oreg.). Mitochondria were stained with 100 nM Mitotracker Green FM (Molecular Probes, OR). Nuclei were stained with 4,6-diamino-2-phenylindole (DAPI; 1 mg/ml in PBS). Coverslips were mounted onto slides with 0.1 M Tris (pH 7.0) in 50% glycerol. Cells were visualized by digital confocal immunofluorescence and images were captured with a cooled CCD camera mounted on a Zeiss Axioplan 2 microscope. Images were deconvolved using Slidebook software (Intelligent Imaging Innovations, Inc., Denver, Colo.).
Protein concentration was determined by the Bio-Rad protein estimation kit.
Preparation of cell lysates: Whole cell lysates (WCL) were prepared as described (Kharbanda et al. (1995) Nature 376, 785-788) and analyzed for protein concentration.
Immunoprecipitation and immunoblot analysis. Soluble proteins ([…]) were incubated with anti-c-Abl (K-12; Santa Cruz Biotechnology) for 1 hour and precipitated with protein A-sepharose for 30 minutes. Immunoprecipitates and lysates ([…]) were resolved by SDS-PAGE and analyzed by immunoblotting with anti-c-Abl (24-11; Santa Cruz), anti-HSP60 (Stressgen, Victoria, British Columbia), anti-b-actin (Sigma) anti-PCNA (Calbiochem), anti-PDGF receptor (Oncogene) and anti-PKCd (Santa Cruz).

cytochrome c = experiment: Cytochrome c release in U-937 cells, immunoblot of cytoplasmic fractions; assay type: cell-based, human; settings: for effect on H2O2-induced release of cytochrome c: U-937 cells pretreated with NAC (30 mM) or rottlerin (10 µM); for cytochrome c release: U-937 cells, agent alone
Procedure: as §4, §5, §6

PKCζ = experiment: Cytoplasmic or mitochondrial PKCζ levels in U-937 cells, immunoblot; settings: TPA
PKCγ = PKCγ (Homo sapiens, UniProt P05129); experiment: Cytoplasmic or mitochondrial PKCγ levels in U-937 cells, immunoblot; settings: TPA
MCF-7/neo cells = experiment: Apoptosis by sub-G1 DNA content in MCF-7/neo cells
PKCd [8] = target: T1, PKCd; settings: MCF-7 cells, TPA
Procedure: Cell culture and reagents: Human U-937 myeloid leukemia cells (ATCC, Rockville, Md.) were grown in RPMI 1640 medium supplemented with 10% heat-inactivated fetal bovine serum (FBS), 100 units/ml penicillin, 100 μg/ml streptomycin, and 2 mM L-glutamine. MCF-7, MCF-7/neo, MCF-7/PKCdRD and 293T cells were grown in Dulbecco's modified Eagle's medium (DMEM) containing 10% FBS. […] Cells were also treated with 10 μM rottlerin (Calbiochem).

c-Abl [9] = experiment: c-Abl activity in cytoplasts devoid of nuclei; assay type: cell-based
Procedure: as §8

catalase = experiment: Catalase levels in MEFs; assay type: cell-based, mouse
Text: As a control, degradation was inhibited when [g-S]ATP was substituted for ATP to prevent ubiquitination. […] Lactacystin, another proteosome inhibitor, was used to assess degradation of catalase in cells.

PKCd [10] = target: PKCd (Mus musculus, UniProt P28867); design: effect on H2O2-induced translocation of PKCd to mitochondria: dose or concentration left out as unconfirmed; settings: NIH3T3 cells, rottlerin
PKCd (Mus musculus, UniProt P28867), sequence (P28867 whole entry): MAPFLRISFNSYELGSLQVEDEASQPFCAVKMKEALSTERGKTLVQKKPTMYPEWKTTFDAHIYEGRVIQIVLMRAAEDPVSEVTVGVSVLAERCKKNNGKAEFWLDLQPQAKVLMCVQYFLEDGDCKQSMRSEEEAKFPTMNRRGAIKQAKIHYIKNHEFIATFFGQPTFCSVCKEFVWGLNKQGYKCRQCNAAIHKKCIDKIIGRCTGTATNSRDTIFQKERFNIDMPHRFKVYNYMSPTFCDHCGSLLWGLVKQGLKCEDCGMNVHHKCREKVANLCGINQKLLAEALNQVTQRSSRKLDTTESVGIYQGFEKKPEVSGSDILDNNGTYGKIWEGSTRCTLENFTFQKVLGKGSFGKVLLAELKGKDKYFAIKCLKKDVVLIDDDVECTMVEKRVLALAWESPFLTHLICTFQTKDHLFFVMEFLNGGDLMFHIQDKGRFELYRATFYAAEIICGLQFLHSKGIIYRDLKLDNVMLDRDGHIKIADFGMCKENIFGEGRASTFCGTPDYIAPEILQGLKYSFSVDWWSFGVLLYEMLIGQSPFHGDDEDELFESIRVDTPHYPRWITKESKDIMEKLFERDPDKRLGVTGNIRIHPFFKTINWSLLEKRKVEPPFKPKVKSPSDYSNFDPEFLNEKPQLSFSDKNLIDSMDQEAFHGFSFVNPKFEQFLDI
Procedure: as §5, §7

U-937 cells = experiment: Apoptosis by sub-G1 DNA content in U-937 cells; assay type: cell-based, human
[11] = test system: mitochondrial transmembrane potential; experiment: Mitochondrial transmembrane potential, Rhodamine 123 staining, MEFs; design: effect on H2O2-induced change in Ψ: dose or concentration left out as unconfirmed; settings: wild-type MEFs pretreated with cyclosporin A

C[C@H]1CCC/C=C/[C@@H]2C[C@H](O)C[C@H]2[C@H](O)/C=C/C(=O)O1 [Brefeldin A]
mitochondrial c-Abl activity (c-Abl [1]): increases in mitochondrial c-Abl activity | c-Abl levels in the ER fraction (c-Abl [2]): decreases | c-Abl protein in the mitochondrial fraction, immunoblot (c-Abl [3]): increases in c-Abl protein | induction of apoptosis (MEFs): abrogated | expression of grp78 (grp78): increases in grp78 | c-Abl levels in the cytoplasm or nucleus (c-Abl [4]): no detectable effect

CC(=O)N[C@@H](CS)C(=O)O [NAC, N-acetyl-L-cysteine]
effect on H2O2-induced localization of PKCd to mitochondria (PKCd [5]; 30 mM NAC): inhibits | effect on H2O2-induced phosphorylation of GST-Crk(120-225) by c-Abl (c-Abl [6]): inhibited | effect on H2O2-induced translocation of c-Abl to mitochondria (c-Abl [7]): inhibited | effect on H2O2-induced release of cytochrome c (cytochrome c): blocks

CCCCCCCCCCCCCC(=O)O[C@@H]1[C@@H](C)[C@@]2(O)[C@@H](C=C(CO)C[C@]3(O)C(=O)C(C)=C[C@@H]23)[C@H]2C(C)(C)[C@]12OC(C)=O [TPA]
cytoplasmic or mitochondrial levels of PKCζ (PKCζ): no detectable effect | translocation of PKCd to mitochondria (PKCd [5]; 250 nM TPA, 100 nM bryostatin, 0.5 units/ml PLC, 10 μM DOG): increases in mitochondrial PKCd | percent PKCd translocation to mitochondria (PKCd [5]; 250 nM TPA, scanned immunoblots): approximately 40% | cytoplasmic or mitochondrial levels of PKCγ (PKCγ): no detectable effect | apoptosis (MCF-7/neo cells): induction of apoptosis | translocation of PKCd to mitochondria (PKCd [8]): translocates to mitochondria | cytochrome c release (cytochrome c): cytochrome c release

N.N.[Cl][Pt][Cl] [cisplatin, cis-platinum]
c-Abl activity in cytoplasts (c-Abl [9]): no detectable effect

CC(=O)N[C@@H](CSC(=O)[C@]1([C@@H](O)C(C)C)NC(=O)[C@H](C)[C@@H]1O)C(=O)O [lactacystin]
catalase levels (catalase; c-abl−/−arg−/− cells): little if any effect | catalase levels (catalase; wild-type MEFs): increase in catalase levels

CC(=O)c1c(O)c(C)c(O)c(Cc2c(O)c3c(c(C(=O)/C=C/c4ccccc4)c2O)OC(C)(C)C=C3)c1O [rottlerin]
effect on H2O2-induced translocation of PKCd to mitochondria (PKCd [10]): inhibits | effect on TPA-induced localization of PKCd to mitochondria (PKCd [5]; 10 μM rottlerin): abrogated | apoptosis, sub-G1 DNA content (U-937 cells; rottlerin alone): low level of apoptosis | effect on apoptotic response to TPA (U-937 cells; rottlerin and TPA): significantly attenuated | effect on H2O2-induced translocation of c-Abl to mitochondria (c-Abl [7]): inhibited | constitutive levels of mitochondrial c-Abl (c-Abl [7]; rottlerin alone): no effect | effect on H2O2-induced release of cytochrome c (cytochrome c): blocked | effect on TPA-induced cytochrome c release (cytochrome c; U-937 cells pretreated with rottlerin before TPA): significantly blocks | cytochrome c release (cytochrome c): detectable release of cytochrome c

cyclosporin A
effect on H2O2-induced change in Ψ [11]: abrogated

Source: patent publication US7556935B2 (Dana-Farber Cancer Institute, Inc., priority 2001, dated 2009)
